From patent US8598128B2, “Fructosylated puerarin, and preparation method and use thereof” (priority 2010, dated 2013)
In brackets after ≈: the same amount, converted by molar mass.

Columns and labels:
[1] = cited from earlier work; for water solubility compared with puerarin: literature
[2] = literature; cited from earlier work
[3] = system: myocardio ischemia mice; experiment: T wave amplitude variation in pituitrin acute myocardial ischemia model; type: in vivo, Sprague-Dawley mice (SD mice); conditions: 50 mg/kg
Text: (§1) Embodiment 6: […] Pituitrin injection was purchased from Nanjing Xinbai Pharmaceutical Co., Ltd., normal saline injection from Nanjing Xiaoying Pharmaceutical Co., Ltd., and DMSO, PG, and anhydrous ethanol were of chromatographic class. […] The data were presented with, and tested with t. P<0.05 indicates substantial difference, P<0.01 indicates very substantial difference; and P<0.001 indicates extremely substantial difference.

[4] = system: myocardio ischemia mice; experiment: Heart rate in pituitrin acute myocardial ischemia model; type: in vivo, Sprague-Dawley mice (SD mice); conditions: 50 mg/kg
Text: as §1

[5] = in vivo; conditions: in vivo, 50 mg/kg
Procedure: Embodiment 5: Metabokinetic Experiment of monofructosyl-β(2,6)-Puerarin in Blood
In HPLC analysis, DIONEX was used, with chromatographic column as Discovery HS C18 ([…], 5 μm), feeding specimen volume 20 μL, column temperature 30° C., the detector was UVD170U, with detection wavelength of 254 nm, flowing phase: A, water, B, chromatographic class methanol, A:B=80:20, at flow rate of 1 mL/min.
Sprague-Dawley mice (SD mice), with weight of 180-220 g, male and female in half, provided by Medical Experiment Center of Nantong University, with production permit No.: SCXK (Su) 20080010.
SD mice were randomly divided into 2 groups of 5 each, fasting for 12 hours before experiment. Puerarin and monofructosyl-β(2,6)-puerarin were respectively dissolved in 20% 1,2-PG normal saline, and injected into mouse caudal vein at a dosage of 50 mg/kg. After injection, at t=0 min, 4 min, 7 min, 17 min, 40 min, 60 min, 120 min and 180 min, 0.5 mL of blood was taken from orbit and put into centrifugal tubes treated with liquaemin, then it was immediately separated by centrifuging at 3000 rpm for 15 min, to separate out plasma for analysis.
Plasma of 100 μL was precisely taken and put into test tube, and 400 μL of methanol sedimented protein was added, they were mixed on vortex mixer for 5 min, then centrifuged at 10000 rpm for 10 min, and the supernatant was used for HPLC analysis.
The plasma concentration of the puerarin and monofructosyl-β(2,6)-puerarin specimens prepared as per 3.2 was obtained by calculation with external reference method. The data obtained were analyzed using pharmacokinetics statistic software.

[6] = physchem; conditions: 25° C.
[7] = system: human breast cancer cell strain MDA-MB-231; experiment: MDA-MB-231 cell toxicity test (MTT); type: cell-based; conditions: 48 h; for OD value: MTT 490 nm
Procedure: MDA-MB-231 cells were cultured in an incubator at 37° C. with 5% CO2 saturated humidity in the RPMI-1640 complete culture medium containing inactivated fetal calf serum with volume fraction of 10%, 100 U penicillin and streptomycin. Take MDA-MB-231 cells in logarithmic phase (primary culture bottle) and discard the culture solution. […] Prepare the suspended solution of cells and adjust the cell concentration with appropriate amount of complete culture medium to 3×10^4/mL. Fed the cells into a tissue culture plate 96, with cell suspended liquid of 180 μL in each case, and put the culture plate into a cell incubator (37° C., 5% CO2) for conventional culture. When cells grew to 50%-70%, add drug liquid of different concentration. […] For DMSO solvent control group, add 20 μL of PBS containing […] and for the blank group, add 20 μL of PBS. For each drug concentration, 6 complex cases were provided. Put back the culture plate into the cell incubator, after 48 h, add 20 μL MTT (5 mg/mL) solution and continue to incubate it in the incubator for 4 h, then remove the supernatant and dry it with tissue, add 200 μL DMSO into each case and vibrate it in the rocker without light for 15 min, to allow the crystal to fully dissolve. Determine the light absorption at 490 nm with a fully automatic ELISA instrument, and calculate the average suppression rate, suppression rate (%)=(control group A490−test group A490)/control group A490), the experiment was repeated three times. Relevant analysis and Student t tests in Microsoft Excel 2003 were used, and data are presented in X±SD.

[8] = system: human chronmyelogenors leukemia cell strain K562; experiment: K562 cell toxicity test (MTT); type: cell-based; conditions: 48 h; for OD value: MTT 490 nm
Procedure: K-562 cells were cultured in an incubator at 37° C. with 5% CO2 saturated humidity in the RPMI-1640 complete culture medium containing inactivated calf serum with volume fraction of 10%, 100 U penicillin and streptomycin. […] For each drug concentration, 6 complex cases were provided. Put back the culture plate into the cell incubator, after 48 h, add 20 μL MTT (5 mg/mL) solution and continue to incubate it in the incubator for 4 h, then each case was added with triple liquid 100 μL, put it overnight to allow the crystal to fully dissolve. Vibrate it with oscillator for 20 min and determine the light absorption at 490 nm with a fully automatic ELISA instrument, and calculate the average suppression rate, suppression rate (%)=(control group A490−test group A490)/control group A490), the experiment was repeated three times. Relevant analysis and Student t tests in Microsoft Excel 2003 were used, and data are presented in X±SD.

[9] = Solubility determination at 25° C.
[10] = system: aorta vascular smooth muscle; conditions: compared with puerarin, literature; cited from earlier work
[11] = both, Sprague-Dawley, mouse, iv

Molecule: O=c1c(-c2ccc(O)cc2)coc2c([C@@H]3O[C@H](CO)[C@@H](O)[C@H](O)[C@H]3O)c(O[C@@H]3O[C@H](CO)[C@@H](O)[C@H](O)[C@H]3O)ccc12 [7-O-glucoside puerarin]
- water solubility compared with puerarin [1]: 18 times
- mean retaining time (MRT) relative to puerarin [2]: 2.8 times
- plasma half-life (t1/2) relative to puerarin [2]: 2 times

Molecule: O=c1c(-c2ccc(O)cc2)coc2c(C3OC(CO)C(O)C(O)C3O)c(OC3OC(COC4OC(CO)C(O)C(O)C4O)C(O)C(O)C3O)ccc12 (stereo not drawn) [7-O-isomaltoside puerarin]
- water solubility compared with puerarin [1]: 100 times

Molecule: O=c1c(-c2ccc(O)cc2)coc2c([C@@H]3O[C@H](CO)[C@@H](O)[C@H](O)[C@H]3O)c(O)ccc12 [Puerarin, 7,4′-dyhydroxy-8-β-D-glucosyl isoflavone]
- solubility in water ([1]; background statement): 6240 µg/mL (≈ 15 mM)
- T wave amplitude variation ([3]; 15 s after Pit): 0.082 ± 0.052 mv
- T wave amplitude variation ([3]; 30 s after Pit): 0.114 ± 0.096 mv
- T wave amplitude variation ([3]; 1 min after Pit): 0.118 ± 0.086 mv
- T wave amplitude variation ([3]; 2 min after Pit): 0.132 ± 0.096 mv
- T wave amplitude variation ([3]; 5 min after Pit): 0.118 ± 0.075 mv
- T wave amplitude variation ([3]; 10 min after Pit): 0.074 ± 0.061 mv
- Heart rate ([4]; 5 s): 512 ± 36 time · min^−1
- Heart rate ([4]; 10 s): 469 ± 32 time · min^−1
- Heart rate ([4]; 15 s): 437 ± 63 time · min^−1
- Heart rate ([4]; 30 s): 411 ± 69 time · min^−1
- Heart rate ([4]; 1 min): 379 ± 85 time · min^−1
- Heart rate ([4]; 2 min): 379 ± 72 time · min^−1
- Heart rate ([4]; 5 min): 384 ± 53 time · min^−1
- Heart rate ([4]; 10 min): 434 ± 51 time · min^−1
- Heart rate ([4]; Normal): 484 ± 33 time · min^−1
- MRT inf [5, 11]: 20.6 min
- MRT last [5, 11]: 19.7 min
- clearance [5, 11]: 13 ± 3 mL/min/kg
- half-life [5, 11]: 17 ± 3.09 min
- AUC (0-t) [5]: 4096.192 ± 973.839 mg/Lxmin
- solubility [6]: 5200 µg/mL (≈ 12.5 mM)
- Average suppression rate ([7]; 0.5 μmol/L): 10.68%
- OD value ([7]; 0.5 μmol/L): 0.632 ± 0.056
- Average suppression rate ([7]; 1 μmol/L): 11.67%
- OD value ([7]; 1 μmol/L): 0.624 ± 0.053
- Average suppression rate ([7]; 5 μmol/L): 12.43%
- OD value ([7]; 5 μmol/L): 0.619 ± 0.090
- Average suppression rate ([7]; 10 μmol/L): 13.77%
- OD value ([7]; 10 μmol/L): 0.610 ± 0.039
- Average suppression rate ([7]; 50 μmol/L): 24.92%
- OD value ([7]; 50 μmol/L): 0.531 ± 0.066
- Average suppression rate ([7]; 100 μmol/L): 33.06%
- OD value ([7]; 100 μmol/L): 0.473 ± 0.034
- Average suppression rate ([7]; 150 μmol/L): 47.47%
- OD value ([7]; 150 μmol/L): 0.372 ± 0.037
- Average suppression rate ([7]; 200 μmol/L): 61.91%
- OD value ([7]; 200 μmol/L): 0.619 ± 0.042
- Average suppression rate ([8]; 1 μmol/L): 10.65%
- OD value ([8]; 1 μmol/L): 0.917 ± 0.031
- Average suppression rate ([8]; 5 μmol/L): 7.52%
- OD value ([8]; 5 μmol/L): 0.949 ± 0.023
- Average suppression rate ([8]; 10 μmol/L): 9.46%
- OD value ([8]; 10 μmol/L): 0.929 ± 0.030
- Average suppression rate ([8]; 20 μmol/L): 10.68%
- OD value ([8]; 20 μmol/L): 0.916 ± 0.056
- Average suppression rate ([8]; 50 μmol/L): 22.73%
- OD value ([8]; 50 μmol/L): 0.793 ± 0.083
- Average suppression rate ([8]; 100 μmol/L): 30.89%
- OD value ([8]; 100 μmol/L): 0.709 ± 0.038
- Average suppression rate ([8]; 150 μmol/L): 36.65%
- OD value ([8]; 150 μmol/L): 0.650 ± 0.039
- Average suppression rate ([8]; 200 μmol/L): 54.19%
- OD value ([8]; 200 μmol/L): 0.470 ± 0.027

Molecule: O=c1c(-c2ccc(O)cc2)coc2c([C@@H]3O[C@H](CO[C@]4(CO)O[C@H](CO[C@]5(CO)O[C@H](CO)[C@@H](O)[C@@H]5O)[C@@H](O)[C@@H]4O)[C@@H](O)[C@H](O)[C@H]3O)c(O)ccc12 [bifructosyl-β(2,6)-puerarin]
- solubility [9]: 280800 µg/mL (≈ 379 mM)
- solubility relative to puerarin ([9]; puerarin 5.2 g/L): 54 times

Molecule: O=c1c(-c2ccc(O)cc2)coc2c([C@@H]3O[C@H](CO[C@H]4O[C@H](CO)[C@@H](O)[C@H](O)[C@H]4O)[C@@H](O)[C@H](O)[C@H]3O)c(O)ccc12 [glucosyl-α-(1, 6)-puerarin]
- water solubility compared with puerarin [1]: 14 times

Molecule: O=c1c(-c2ccc(O)cc2)coc2c([C@@H]3O[C@H](CO[C@H]4O[C@H](CO)[C@@H](O[C@H]5O[C@H](CO)[C@@H](O)[C@H](O)[C@H]5O)[C@H](O)[C@H]4O)[C@@H](O)[C@H](O)[C@H]3O)c(O)ccc12 [maltosyl-α-(1,6)-puerarin]
- water solubility compared with puerarin [1]: 168 times

Molecule: semi-emulsified glycosyl-α-(1,4)-puerarin
- vasodilatation effect [10]: could produce better vasodilatation effect than puerarin
